Results taken from the NIST ThermoML archive (doi:10.1021/acs.jced.8b00509).

Assay: mn = molality of the nth substance listed, in mol/kg
Details: 100 kPa, Liquid; for viscosity: Capillary tube (Ostwald / Ubbelohde) method; for speed of sound: Frequency=3 MHz, Single path-length method; for mass density: Vibrating tube method

C[C@H](CCC(=O)[O-])[C@H]1CC[C@H]2[C@@H]3[C@H](O)C[C@@H]4C[C@H](O)CC[C@]4(C)[C@H]3C[C@H](O)[C@]12C.[Na+] [sodium cholate] + O
Details	mass density [kg/m3]	speed of sound [m/s]	viscosity [mPa·s]
293.15 K, m1 = 0.002	998.46	1483.6	1.004
293.15 K, m1 = 0.004	998.67	1484.3	1.007
293.15 K, m1 = 0.006	998.88	1484.8	1.011
293.15 K, m1 = 0.008	999.1	1485.3	1.016
293.15 K, m1 = 0.01	999.32	1486	1.021
293.15 K, m1 = 0.012	999.53	1486.7	1.025
293.15 K, m1 = 0.014	999.76	1487.3	1.032
293.15 K, m1 = 0.016	999.98	1487.8	1.037
293.15 K, m1 = 0.018	1000.2	1488.3	1.041
293.15 K, m1 = 0.02	1000.41	1488.8	1.044
293.15 K, m1 = 0.022	1000.63	1489	1.048
293.15 K, m1 = 0.024	1000.83	1489.6	1.051
298.15 K, m1 = 0.002	997.29	1497.5	0.893
298.15 K, m1 = 0.004	997.5	1498	0.896
298.15 K, m1 = 0.006	997.7	1498.6	0.899
298.15 K, m1 = 0.008	997.91	1499.2	0.903
298.15 K, m1 = 0.01	998.13	1499.9	0.906
298.15 K, m1 = 0.012	998.34	1500.5	0.911
298.15 K, m1 = 0.014	998.56	1501	0.918
298.15 K, m1 = 0.016	998.77	1501.6	0.922
298.15 K, m1 = 0.018	998.97	1502	0.926
298.15 K, m1 = 0.02	999.19	1502.3	0.93
298.15 K, m1 = 0.022	999.39	1502.8	0.933
298.15 K, m1 = 0.024	999.6	1503.3	0.936
303.15 K, m1 = 0.002	995.88	1509.8	0.8
303.15 K, m1 = 0.004	996.08	1510.2	0.803
303.15 K, m1 = 0.006	996.29	1510.8	0.806
303.15 K, m1 = 0.008	996.49	1511.3	0.809
303.15 K, m1 = 0.01	996.7	1511.9	0.813
303.15 K, m1 = 0.012	996.91	1512.4	0.817
303.15 K, m1 = 0.014	997.12	1512.9	0.823
303.15 K, m1 = 0.016	997.34	1513.4	0.827
303.15 K, m1 = 0.018	997.54	1513.8	0.831
303.15 K, m1 = 0.02	997.74	1514.2	0.835
303.15 K, m1 = 0.022	997.94	1514.7	0.838
303.15 K, m1 = 0.024	998.14	1515.1	0.841
308.15 K, m1 = 0.002	994.26	1520.5	0.722
308.15 K, m1 = 0.004	994.46	1520.9	0.725
308.15 K, m1 = 0.006	994.66	1521.4	0.727
308.15 K, m1 = 0.008	994.87	1521.9	0.73
308.15 K, m1 = 0.01	995.08	1522.4	0.734
308.15 K, m1 = 0.012	995.29	1522.9	0.737
308.15 K, m1 = 0.014	995.5	1523.4	0.742
308.15 K, m1 = 0.016	995.7	1523.9	0.747
308.15 K, m1 = 0.018	995.9	1524.4	0.751
308.15 K, m1 = 0.02	996.1	1524.8	0.755
308.15 K, m1 = 0.022	996.29	1525.2	0.758
308.15 K, m1 = 0.024	996.49	1525.6	0.76
313.15 K, m1 = 0.002	992.43	1529.5	0.655
313.15 K, m1 = 0.004	992.63	1529.8	0.658
313.15 K, m1 = 0.006	992.84	1530.3	0.66
313.15 K, m1 = 0.008	993.04	1530.8	0.663
313.15 K, m1 = 0.01	993.24	1531.2	0.666
313.15 K, m1 = 0.012	993.45	1531.7	0.67
313.15 K, m1 = 0.014	993.66	1532.2	0.675
313.15 K, m1 = 0.016	993.85	1532.6	0.679
313.15 K, m1 = 0.018	994.05	1533.1	0.684
313.15 K, m1 = 0.02	994.24	1533.5	0.686
313.15 K, m1 = 0.022	994.45	1533.8	0.689
313.15 K, m1 = 0.024	994.64	1534.2	0.691

C[C@H](CCC(=O)[O-])[C@H]1CC[C@H]2[C@@H]3CC[C@@H]4C[C@H](O)CC[C@]4(C)[C@H]3C[C@H](O)[C@]12C.[Na+] [sodium deoxycholate] + O
Details	mass density [kg/m3]	speed of sound [m/s]	viscosity [mPa·s]
293.15 K, m1 = 0.001	998.38	1483.7	1.003
293.15 K, m1 = 0.002	998.49	1484.1	1.004
293.15 K, m1 = 0.003	998.58	1484.5	1.006
293.15 K, m1 = 0.004	998.67	1484.7	1.009
293.15 K, m1 = 0.005	998.75	1484.9	1.014
293.15 K, m1 = 0.006	998.83	1485.2	1.027
293.15 K, m1 = 0.007	998.92	1485.4	1.036
293.15 K, m1 = 0.008	999.01	1485.6	1.04
293.15 K, m1 = 0.009	999.11	1485.8	1.045
293.15 K, m1 = 0.01	999.21	1486	1.047
293.15 K, m1 = 0.011	999.32	1486.2	1.05
293.15 K, m1 = 0.012	999.4	1486.4	1.051
298.15 K, m1 = 0.001	997.22	1497.4	0.892
298.15 K, m1 = 0.002	997.31	1497.6	0.893
298.15 K, m1 = 0.003	997.39	1497.9	0.894
298.15 K, m1 = 0.004	997.48	1498.1	0.897
298.15 K, m1 = 0.005	997.56	1498.3	0.902
298.15 K, m1 = 0.006	997.65	1498.6	0.915
298.15 K, m1 = 0.007	997.73	1498.8	0.924
298.15 K, m1 = 0.008	997.83	1499	0.928
298.15 K, m1 = 0.009	998.01	1499.3	0.932
298.15 K, m1 = 0.01	998.11	1499.5	0.934
298.15 K, m1 = 0.011	998.2	1499.7	0.937
298.15 K, m1 = 0.012	998.2	1499.9	0.938
303.15 K, m1 = 0.001	995.81	1509.6	0.799
303.15 K, m1 = 0.002	995.91	1509.8	0.8
303.15 K, m1 = 0.003	995.98	1510	0.801
303.15 K, m1 = 0.004	996.07	1510.2	0.804
303.15 K, m1 = 0.005	996.14	1510.4	0.809
303.15 K, m1 = 0.006	996.22	1510.7	0.822
303.15 K, m1 = 0.007	996.3	1510.9	0.83
303.15 K, m1 = 0.008	996.39	1511.2	0.834
303.15 K, m1 = 0.009	996.48	1511.4	0.839
303.15 K, m1 = 0.01	996.58	1511.6	0.841
303.15 K, m1 = 0.011	996.66	1511.9	0.843
303.15 K, m1 = 0.012	996.75	1512	0.846
308.15 K, m1 = 0.001	994.18	1520.1	0.72
308.15 K, m1 = 0.002	994.27	1520.4	0.721
308.15 K, m1 = 0.003	994.35	1520.6	0.722
308.15 K, m1 = 0.004	994.44	1520.8	0.726
308.15 K, m1 = 0.005	994.52	1521.2	0.73
308.15 K, m1 = 0.006	994.59	1521.5	0.743
308.15 K, m1 = 0.007	994.68	1521.7	0.752
308.15 K, m1 = 0.008	994.77	1522	0.756
308.15 K, m1 = 0.009	994.84	1522.2	0.76
308.15 K, m1 = 0.01	994.93	1522.4	0.763
308.15 K, m1 = 0.011	995.02	1522.2	0.764
308.15 K, m1 = 0.012	995.1	1522.4	0.766
313.15 K, m1 = 0.001	992.3	1529.2	0.654
313.15 K, m1 = 0.002	992.45	1529.4	0.655
313.15 K, m1 = 0.003	992.53	1529.6	0.657
313.15 K, m1 = 0.004	992.61	1529.8	0.659
313.15 K, m1 = 0.005	992.69	1529.9	0.664
313.15 K, m1 = 0.006	992.76	1530.1	0.678
313.15 K, m1 = 0.007	992.84	1530.3	0.686
313.15 K, m1 = 0.008	992.93	1530.5	0.69
313.15 K, m1 = 0.009	993.01	1530.7	0.694
313.15 K, m1 = 0.01	993.1	1530.9	0.695
313.15 K, m1 = 0.011	993.2	1531	0.699
313.15 K, m1 = 0.012	993.28	1531.2	0.699
